Test results reported in patent US4137314A, “7-Dithioacetamido cephalosporins and pharmaceutical compositions and methods employing them having antibacterial activity” (SmithKline Corporation, priority 1977, dated 1979).
Converted amounts (≈) assume the structure as drawn. Read-outs that look alike come from different tables or passages of the source.

Experiments:
Assay in all cases: MIC, standard agar inclusion method
Format in all cases: cell-based
S. aureus SK23390 = details: Staphylococcus aureus
Proteus morgani 179 = test system: Proteus morgani 179
Kleb. pneumo. SK1200 = test system: Kleb. pneumo. SK1200
Strep. faecalis HH34358 = details: Enterococcus faecalis
Entero. cloacae HH31254 = details: Enterobacter cloacae
E. coli HH33779 = details: Escherichia coli
S. aureus HH127 = details: Staphylococcus aureus
Entero. aerogenes 13048 = details: Klebsiella aerogenes
E. coli SK12140 = details: Escherichia coli
Pseudo aeruginosa HH63 = test system: Pseudo aeruginosa HH63
[1] = test system: Salmonella paratuphi ATCC12176
[2] = test system: Shegella paradysenteriae HH117
Serratia marc. ATCC13880 = test system: Serratia marc. ATCC13880
Kleb. pneumo. SK4200 = test system: Kleb. pneumo. SK4200
S. aureus Villaluz = details: Staphylococcus aureus
[3] = Entero. cloacae HH31254, agar inclusion, read-out: MIC
[4] = Entero. aerogenes 13048, agar inclusion, read-out: MIC

Compound	MIC (S. aureus SK23390) [µg/mL]	MIC (Proteus morgani 179) [µg/mL]	MIC (Kleb. pneumo. SK1200) [µg/mL]	MIC (Strep. faecalis HH34358) [µg/mL]	MIC (Entero. cloacae HH31254; [3]) [µg/mL]	MIC (E. coli HH33779) [µg/mL]	MIC (S. aureus HH127) [µg/mL]	MIC (Entero. aerogenes 13048; [4]) [µg/mL]	MIC (E. coli SK12140) [µg/mL]	MIC (Pseudo aeruginosa HH63) [µg/mL]	MIC [1] [µg/mL]	MIC [2] [µg/mL]	MIC (Serratia marc. ATCC13880) [µg/mL]	MIC (Kleb. pneumo. SK4200) [µg/mL]	MIC (S. aureus Villaluz) [µg/mL]	MIC (Entero. cloacae HH31254; HH31254) [µg/mL]	MIC (Proteus morgani 179; Proteus morgani 179, agar inclusion, read-out: MIC) [µg/mL]	MIC (Entero. aerogenes 13048; 13048) [µg/mL]
CSSCC(=O)NC1C(=O)N2C(C(=O)O)=C(CSc3nnnn3C)CSC12 (stereo not drawn) [A, 7-methyldithioacetamido-3-(1-methyltetrazol-5-yl-thiomethyl)-3-cephem-4-carboxylic acid]	0.4 (≈ 0.892 µM)	> 200	0.8 (≈ 1.78 µM)	12.5 (≈ 27.9 µM)	1.6 (≈ 3.57 µM)	6.3 (≈ 14 µM)	0.4 (≈ 0.892 µM)	3.1 (≈ 6.91 µM)	3.1 (≈ 6.91 µM)	> 200	0.8 (≈ 1.78 µM)	0.8 (≈ 1.78 µM)	> 200	3.1 (≈ 6.91 µM)	6.3 (≈ 14 µM)	–	–	–
Cn1nnnc1SCC1=C(C(=O)O)N2C(=O)C(NC(=O)CSSC(Cl)(Cl)Cl)C2SC1 (stereo not drawn) [B, 7-(trichloromethyldithioacetamido)-3-(1-methyltetrazol-5-ylthiomethyl)-3-cephem-4-carboxylic acid]	3.1 (≈ 5.62 µM)	> 200	6.3 (≈ 11.4 µM)	50 (≈ 90.6 µM)	–	100 (≈ 181 µM)	3.1 (≈ 5.62 µM)	100 (≈ 181 µM)	12.5 (≈ 22.6 µM)	> 200	6.3 (≈ 11.4 µM)	12.5 (≈ 22.6 µM)	> 200	–	50 (≈ 90.6 µM)	12.5 (≈ 22.6 µM)	–	–
Cn1nnnc1SCC1=C(C(=O)O)N2C(=O)C(NC(=O)CSSC(F)(F)F)C2SC1 (stereo not drawn) [C]	3.1 (≈ 6.17 µM)	–	3.1 (≈ 6.17 µM)	50 (≈ 99.5 µM)	12.5 (≈ 24.9 µM)	25 (≈ 49.7 µM)	3.1 (≈ 6.17 µM)	100 (≈ 199 µM)	12.5 (≈ 24.9 µM)	> 100	6.3 (≈ 12.5 µM)	3.1 (≈ 6.17 µM)	> 100	6.3 (≈ 12.5 µM)	6.3 (≈ 12.5 µM)	–	> 100	–
Cc1nnc(SCC2=C(C(=O)O)N3C(=O)[C@@H](NC(=O)Cn4cnnn4)[C@H]3SC2)s1 [Cefazolin, reference compound]	0.4 (≈ 0.88 µM)	> 200	–	6.3 (≈ 13.9 µM)	–	3.1 (≈ 6.82 µM)	0.4 (≈ 0.88 µM)	–	1.6 (≈ 3.52 µM)	> 200	1.6 (≈ 3.52 µM)	0.8 (≈ 1.76 µM)	> 200	3.1 (≈ 6.82 µM)	25 (≈ 55 µM)	–	–	1.6 (≈ 3.52 µM)
CSSCC(=O)NC1C(=O)N2C(C(=O)O)=C(COC(C)=O)CSC12 (stereo not drawn) [D, 7-(methyldithioacetamido)-cephalosporanic acid]	0.2 (≈ 0.51 µM)	> 200	3.1 (≈ 7.9 µM)	12.5 (≈ 31.8 µM)	25 (≈ 63.7 µM)	12.5 (≈ 31.8 µM)	0.2 (≈ 0.51 µM)	25 (≈ 63.7 µM)	6.3 (≈ 16.1 µM)	> 200	6.3 (≈ 16.1 µM)	1.6 (≈ 4.08 µM)	> 200	3.1 (≈ 7.9 µM)	3.1 (≈ 7.9 µM)	–	–	–
